In ChEMBL document CHEMBL5113483, “Design and synthesis of NAD(P)H: Quinone oxidoreductase (NQO1)-activated prodrugs of 23-hydroxybetulinic acid with enhanced antitumor properties” (Eur J Med Chem, 2022) one finds IC50, Activity and viability data, which are given here for one compound.

In assay [1] the test system is HT-29. Put plainly: Antiproliferative activity against human HT-29 cells overexpressing NQO1 assessed as inhibition of cell growth incubated for 72 hrs by MTT assay. It is filed as functional, cell-based. The following applies: HT-29, 72 h.
Assay [2] concerns NCI-H596. The assay is described as follows: Antiproliferative activity against NQO1-deficient human NCI-H596 cells assessed as inhibition of cell growth incubated for 72 hrs by MTT assay. To be noted: NCI-H596, 72 h. In kind it is functional, cell-based.
Assay [3] deals with HT-29. The assay is described as follows: Induction of apoptosis in human HT-29 cells assessed as upregulation of cytochrome C protein expression incubated for 48 hrs by Western blot analysis. In kind it is functional, cell-based. To be noted: dose 1-4 µM, DDE = dose-dependent effect.
Assay [4] has as its system HT-29. Put plainly: Induction of cell cycle arrest in human HT-29 cells assessed as accumulation of cells at S phase at 1 uM incubated for 48 hrs by RNaeA/propidium iodide based flow cytometry analysis (reference value: 23.06 %). In kind it is functional.
The test system of assay [5] is HT-29. Put plainly: Induction of mitochondrial membrane potential loss in human HT-29 cells assessed as JC-1 monomer formation by measuring increase in green intensity at 1 uM incubated for 48 hrs by JC-1 staining based flow cytometry analysis (reference value: 6.54 %). In kind it is functional.
Assay [6] concerns HT-29. Put plainly: Induction of oxidative stress in human HT-29 cells assessed as increase in intracellular ROS generation incubated for 48 hrs by DCF-DA fluorescent probe based flow cytometry analysis. In kind it is functional, cell-based. The following applies: dose 1-4 µM, DDE = dose-dependent effect.
Assay [7] has as its system HT-29. The assay is described as follows: Antitumor activity against human HT-29 cells overexpressing NQO-1 xenografted in ICR mouse assessed as reduction in tumor weight at 15 mg/kg, ip administered every day for 21 days and measured every 2 days relative to control. In kind it is functional. Further details: scale not given: the % may be the effect or the level left. The following applies: time 21 day.

Assay [8] deals with HT-29. The assay is described as follows: Induction of apoptosis in human HT-29 cells assessed as dead cells at 4 uM incubated for 48 hrs by Annexin V-FITC/PI staining based flow cytometry analysis (Rvb= 0.01%). In kind it is functional.
Assay [9] relates to HT-29. Put plainly: Induction of mitochondrial membrane potential loss in human HT-29 cells assessed as healthy cells at 4 uM incubated for 48 hrs by JC-1 staining based flow cytometry analysis (reference value: 93.4 %). In kind it is functional.
Assay [10] deals with HT-29. The assay is described as follows: Induction of cell cycle arrest in human HT-29 cells assessed as accumulation of cells at S phase at 4 uM incubated for 48 hrs by RNaeA/propidium iodide based flow cytometry analysis (reference value: 23.06 %). In kind it is functional.
Assay [11] has as its system HT-29. The assay is described as follows: Induction of apoptosis in human HT-29 cells assessed as viable cells at 2 uM incubated for 48 hrs by Annexin V-FITC/PI staining based flow cytometry analysis (Rvb= 96.54%). It is filed as functional. The following applies: read-out: Activity.
The subject of assay [12] is HT-29. The assay is described as follows: Induction of apoptosis in human HT-29 cells assessed as late apoptotic cells at 4 uM incubated for 48 hrs by Annexin V-FITC/PI staining based flow cytometry analysis (Rvb= 1.04%). In kind it is functional.
Assay [13] deals with HT-29. Put plainly: Induction of apoptosis in human HT-29 cells assessed as viable cells at 1 uM incubated for 48 hrs by Annexin V-FITC/PI staining based flow cytometry analysis (Rvb= 96.54%). In kind it is functional. The following applies: read-out: Activity.

Each structure is given as a SMILES string.

Regarding `C=C(C)[C@@H]1CC[C@]2(C(=O)OCCOC(=O)CCC(=O)OCc3cn(C)c4c3C(=O)C(OC)=CC4=O)CC[C@]3(C)[C@H](CC[C@@H]4[C@@]5(C)CC[C@H](O)[C@@](C)(CO)[C@@H]5CC[C@]43C)[C@@H]12`, the IC50 in [1] was 1.87 µM; in assay [2], 7.78 µM. For the same compound, the Activity entry in assay [3] was “Dde”; in [4] it was 23.02%; in [5], 20.83%; in [6], “Dde”; in [7], 55.89%; in assay [8], 6.74%. In addition, the Activity in assay [9] is 55.52%; in assay [10], 27.66%; in assay [12] it was 22.58%. Further, the viability at 2 µM in assay [11] came out at 55.7%. Also, the viability at 1 µM in [13] came out at 75.5%.
